Laboratory results from PubChem BioAssay (NCI).
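GI50 = concentration required for 50% inhibition of growth. TGI denotes the concentration required for complete inhibition of growth.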

What was measured:
Assay in all cases: inhibition of tumour cell growth, NCI panel, 384-well format
786-0 renal = tested on: 786-0 renal
A498 renal = tested on: A498 renal
A549 NSCLC = tested on: A549 NSCLC
ACHN renal = tested on: ACHN renal
BT-549 breast = tested on: BT-549 breast
CAKI-1 renal = tested on: CAKI-1 renal
CCRF-CEM leukemia = tested on: CCRF-CEM leukemia
COLO 205 colon = tested on: COLO 205 colon
DU-145 prostate = tested on: DU-145 prostate
EKVX NSCLC = tested on: EKVX NSCLC
HCC-2998 colon = tested on: HCC-2998 colon
HCT-116 colon = tested on: HCT-116 colon
HCT-15 colon = tested on: HCT-15 colon
HL-60(TB) leukemia = tested on: HL-60(TB) leukemia
HOP-62 NSCLC = tested on: HOP-62 NSCLC
HOP-92 NSCLC = tested on: HOP-92 NSCLC
HS 578T breast = tested on: HS 578T breast
HT29 colon = tested on: HT29 colon
IGROV1 ovarian = tested on: IGROV1 ovarian
K-562 leukemia = tested on: K-562 leukemia
KM12 colon = tested on: KM12 colon
LOX IMVI melanoma = tested on: LOX IMVI melanoma
M14 melanoma = tested on: M14 melanoma
MALME-3M melanoma = tested on: MALME-3M melanoma
MCF7 breast = tested on: MCF7 breast
MDA-MB-231 breast = tested on: MDA-MB-231 breast
MDA-MB-435 melanoma = tested on: MDA-MB-435 melanoma
MDA-MB-468 breast = tested on: MDA-MB-468 breast
MOLT-4 leukemia = tested on: MOLT-4 leukemia
NCI-H226 lung = tested on: NCI-H226 lung
NCI-H23 lung = tested on: NCI-H23 lung
NCI-H322M lung = tested on: NCI-H322M lung
NCI-H460 NSCLC = tested on: NCI-H460 NSCLC
NCI-H522 lung = tested on: NCI-H522 lung
NCI/ADR-RES ovarian = tested on: NCI/ADR-RES ovarian
OVCAR-3 ovarian = tested on: OVCAR-3 ovarian
OVCAR-4 ovarian = tested on: OVCAR-4 ovarian
OVCAR-5 ovarian = tested on: OVCAR-5 ovarian
OVCAR-8 ovarian = tested on: OVCAR-8 ovarian
PC-3 prostate = tested on: PC-3 prostate
RPMI-8226 leukemia = tested on: RPMI-8226 leukemia
RXF 393 renal = tested on: RXF 393 renal
SF-268 CNS = tested on: SF-268 CNS
SF-295 CNS = tested on: SF-295 CNS
SF-539 CNS = tested on: SF-539 CNS
SK-MEL-28 melanoma = tested on: SK-MEL-28 melanoma
SK-MEL-5 melanoma = tested on: SK-MEL-5 melanoma
SK-OV-3 ovarian = tested on: SK-OV-3 ovarian
SN12C renal = tested on: SN12C renal
SNB-19 CNS = tested on: SNB-19 CNS
SNB-75 CNS = tested on: SNB-75 CNS
SW-620 colon = tested on: SW-620 colon
T-47D breast = tested on: T-47D breast
TK-10 renal = tested on: TK-10 renal
U251 glioblastoma = tested on: U251 glioblastoma
UACC-257 melanoma = tested on: UACC-257 melanoma
UACC-62 melanoma = tested on: UACC-62 melanoma
UO-31 renal = tested on: UO-31 renal

Compound `CN(C(=O)c1ccc(F)cc1C(F)(F)F)C1CCN(c2nnc(-c3ccnn3C)c3ccccc23)CC1` has a GI50 ([…]-0 renal) greater than 100 µM, a TGI (786-0 renal) greater than 100 µM and a GI50 (A498 renal) of 46.7 µM. For the same compound, the TGI (A498 renal) was greater than 100 µM, the GI50 (A549 NSCLC) was 44.8 µM and the TGI (A549 NSCLC) was greater than 100 µM. It also gave a GI50 (ACHN renal) greater than 100 µM, a TGI (ACHN renal) greater than 100 µM and a GI50 (BT-549 breast) of 26.7 µM. It also gave a TGI (BT-549 breast) greater than 100 µM, a GI50 (CAKI-1 renal) of 47.6 µM and a TGI (CAKI-1 renal) greater than 100 µM. For the same compound, the GI50 (CCRF-CEM leukemia) was 12.9 µM, the TGI (CCRF-CEM leukemia) was 44.8 µM and the GI50 (COLO 205 colon) was 42.9 µM. The TGI (COLO 205 colon) was greater than 100 µM, the GI50 (DU-145 prostate) was 86.2 µM and the TGI (DU-145 prostate) was greater than 100 µM. The GI50 (EKVX NSCLC) was 21.5 µM, the TGI (EKVX NSCLC) was greater than 100 µM and the GI50 (HCC-2998 colon) was 22.4 µM. For the same compound, the TGI (HCC-2998 colon) was greater than 100 µM, the GI50 (HCT-116 colon) was 47.7 µM and the TGI (HCT-116 colon) was greater than 100 µM. It also gave a GI50 (HCT-15 colon) of 44.4 µM, a TGI (HCT-15 colon) greater than 100 µM and a GI50 (HL-60(TB) leukemia) of 18.7 µM. It also gave a TGI (HL-60(TB) leukemia) of 43.9 µM, a GI50 (HOP-62 NSCLC) of 13.9 µM and a TGI (HOP-62 NSCLC) greater than 100 µM. It also gave a GI50 (HOP-92 NSCLC) of 48.3 µM, a TGI (HOP-92 NSCLC) greater than 100 µM and a GI50 (HS 578T breast) greater than 100 µM. The TGI (HS 578T breast) was greater than 100 µM, the GI50 (HT29 colon) was 76.6 µM and the TGI (HT29 colon) was greater than 100 µM. The GI50 (IGROV1 ovarian) was greater than 100 µM, the TGI (IGROV1 ovarian) was greater than 100 µM and the GI50 (K-562 leukemia) was 15.1 µM. It also gave a TGI (K-562 leukemia) greater than 100 µM, a GI50 (KM12 colon) greater than 100 µM and a TGI (KM12 colon) greater than 100 µM. For the same compound, the GI50 (LOX IMVI melanoma) was 46.3 µM, the TGI (LOX IMVI melanoma) was greater than 100 µM and the GI50 (M14 melanoma) was 58.1 µM. For the same compound, the TGI (M14 melanoma) was greater than 100 µM, the GI50 (MALME-3M melanoma) was 65 µM and the TGI (MALME-3M melanoma) was greater than 100 µM. The GI50 (MCF7 breast) was 29.9 µM, the TGI (MCF7 breast) was greater than 100 µM and the GI50 (MDA-MB-231 breast) was 47 µM. The TGI (MDA-MB-231 breast) was greater than 100 µM, the GI50 (MDA-MB-435 melanoma) was 63.1 µM and the TGI (MDA-MB-435 melanoma) was greater than 100 µM. The GI50 (MDA-MB-468 breast) was 3.8 µM, the TGI (MDA-MB-468 breast) was 21.3 µM and the GI50 (MOLT-4 leukemia) was 13 µM. The TGI (MOLT-4 leukemia) was 26.4 µM, the GI50 (NCI-H226 lung) was 32.1 µM and the TGI (NCI-H226 lung) was greater than 100 µM. For the same compound, the GI50 (NCI-H23 lung) was 30.1 µM, the TGI (NCI-H23 lung) was greater than 100 µM and the GI50 (NCI-H322M lung) was 28 µM. The TGI (NCI-H322M lung) was greater than 100 µM, the GI50 (NCI-H460 NSCLC) was 35.7 µM and the TGI (NCI-H460 NSCLC) was greater than 100 µM. The GI50 (NCI-H522 lung) was 35.5 µM, the TGI (NCI-H522 lung) was greater than 100 µM and the GI50 (NCI/ADR-RES ovarian) was 33.3 µM. The TGI (NCI/ADR-RES ovarian) was greater than 100 µM, the GI50 (OVCAR-3 ovarian) was 85.6 µM and the TGI (OVCAR-3 ovarian) was greater than 100 µM. For the same compound, the GI50 (OVCAR-4 ovarian) was 67.4 µM, the TGI (OVCAR-4 ovarian) was greater than 100 µM and the GI50 (OVCAR-5 ovarian) was greater than 100 µM. For the same compound, the TGI (OVCAR-5 ovarian) was greater than 100 µM, the GI50 (OVCAR-8 ovarian) was 34.7 µM and the TGI (OVCAR-8 ovarian) was greater than 100 µM. For the same compound, the GI50 (PC-3 prostate) was 44.5 µM, the TGI (PC-3 prostate) was greater than 100 µM and the GI50 (RPMI-8226 leukemia) was 22.5 µM. The TGI (RPMI-8226 leukemia) was greater than 100 µM, the GI50 (RXF 393 renal) was 20.9 µM and the TGI (RXF 393 renal) was 74.4 µM. It also gave a GI50 (SF-268 CNS) of 13.9 µM, a TGI (SF-268 CNS) of 71 µM and a GI50 (SF-295 CNS) greater than 100 µM. For the same compound, the TGI (SF-295 CNS) was greater than 100 µM, the GI50 (SF-539 CNS) was greater than 100 µM and the TGI (SF-539 CNS) was greater than 100 µM. It also gave a GI50 (SK-MEL-28 melanoma) greater than 100 µM, a TGI (SK-MEL-28 melanoma) greater than 100 µM and a GI50 (SK-MEL-5 melanoma) of 8.15 µM. It also gave a TGI (SK-MEL-5 melanoma) of 21.2 µM, a GI50 (SK-OV-3 ovarian) of 89.2 µM and a TGI (SK-OV-3 ovarian) greater than 100 µM. The GI50 (SN12C renal) was greater than 100 µM, the TGI (SN12C renal) was greater than 100 µM and the GI50 (SNB-19 CNS) was 89.5 µM. It also gave a TGI (SNB-19 CNS) greater than 100 µM, a GI50 (SNB-75 CNS) of 58.5 µM and a TGI (SNB-75 CNS) greater than 100 µM. For the same compound, the GI50 (SW-620 colon) was greater than 100 µM, the TGI (SW-620 colon) was greater than 100 µM and the GI50 (T-47D breast) was 2.73 µM. For the same compound, the TGI (T-47D breast) was 12.5 µM, the GI50 (TK-10 renal) was greater than 100 µM and the TGI (TK-10 renal) was greater than 100 µM. For the same compound, the GI50 (U251 glioblastoma) was 54.3 µM, the TGI (U251 glioblastoma) was greater than 100 µM and the GI50 (UACC-257 melanoma) was 32 µM. For the same compound, the TGI (UACC-257 melanoma) was greater than 100 µM, the GI50 (UACC-62 melanoma) was greater than 100 µM and the TGI (UACC-62 melanoma) was greater than 100 µM. It also gave a GI50 (UO-31 renal) of 58.7 µM and a TGI (UO-31 renal) greater than 100 µM.
